From patent US10202361B2, “Pyridazinones as herbicides” (E I DU PONT DE NEMOURS AND COMPANY, priority 2014, dated 2019)
Like-named read-outs stand apart in the source and are kept apart here.

Tests used:
Assay in all cases: Test A pre-/postemergence greenhouse herbicide test
Assay type in all cases: in vivo
[1] = tested on: barnyardgrass (Echinochloa crus-galli); details: Echinochloa crus-galli, 240 h, 0 to 100 scale (0 no effect, 100 complete control), approx. 10 d, read-out: Plant response rating, Barnyardgrass; for pest or weed control at 125 g/ha: 125 g ai/ha; for pest or weed control at 500 g/ha: 500 g ai/ha
Procedure, shortened: (§1)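 Seeds sown in loam–sand blend received a directed preemergence soil spray; postemergence spray was applied at the same time to plants 2–10 cm tall at one- to two-leaf stage. Compounds were in non-phytotoxic solvent with surfactant. Visual injury versus untreated controls after ~10 d in greenhouse, 0–100 scale (100 = complete control).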

corn (Zea mays) = details: Zea mays, 240 h, 0 to 100 scale (0 no effect, 100 complete control), approx. 10 d; for Corn plant response rating (crop injury, 0 = no effect, 100 = complete kill) at 125 g/ha: 125 g ai/ha; for Corn plant response rating (crop injury, 0 = no effect, 100 = complete kill) at 500 g/ha: 500 g ai/ha
Procedure, shortened: as §1

[2] = tested on: crabgrass, Large (large crabgrass, Digitaria sanguinalis); details: Digitaria sanguinalis, 240 h, 0 to 100 scale (0 no effect, 100 complete control), approx. 10 d, read-out: Plant response rating, Crabgrass, Large; for pest or weed control at 125 g/ha: 125 g ai/ha; for pest or weed control at 500 g/ha: 500 g ai/ha
Procedure, shortened: as §1

[3] = tested on: foxtail, giant (giant foxtail, Setaria faberii); details: Setaria faberi, 240 h, 0 to 100 scale (0 no effect, 100 complete control), approx. 10 d, read-out: Plant response rating, Foxtail, Giant; for pest or weed control at 125 g/ha: 125 g ai/ha; for pest or weed control at 500 g/ha: 500 g ai/ha
Procedure, shortened: as §1

[4] = tested on: morningglory (Ipomoea spp.); details: Ipomoea, 240 h, 0 to 100 scale (0 no effect, 100 complete control), approx. 10 d, read-out: Plant response rating, Morningglory; for pest or weed control at 125 g/ha: 125 g ai/ha; for pest or weed control at 500 g/ha: 500 g ai/ha
Procedure, shortened: as §1

[5] = tested on: pigweed (Amaranthus retroflexus); details: Amaranthus retroflexus, 240 h, 0 to 100 scale (0 no effect, 100 complete control), approx. 10 d, read-out: Plant response rating, Pigweed; for pest or weed control at 125 g/ha: 125 g ai/ha; for pest or weed control at 500 g/ha: 500 g ai/ha
Procedure, shortened: as §1

[6] = tested on: velvetleaf (Abutilon theophrasti); details: Abutilon theophrasti, 240 h, 0 to 100 scale (0 no effect, 100 complete control), approx. 10 d, read-out: Plant response rating, Velvetleaf; for pest or weed control at 125 g/ha: 125 g ai/ha; for pest or weed control at 500 g/ha: 500 g ai/ha
Procedure, shortened: as §1

[7] = tested on: wheat (Triticum aestivum); details: Triticum aestivum, 240 h, 0 to 100 scale (0 no effect, 100 complete control), approx. 10 d, read-out: Plant response rating, Wheat; for plant injury at 125 g/ha: 125 g ai/ha; for plant injury at 500 g/ha: 500 g ai/ha
Procedure, shortened: as §1

Structure (SMILES)	pest or weed control at 125 g/ha ([1]; post-emergence, Postemergence)	pest or weed control at 500 g/ha ([1]; post-emergence, Postemergence)	pest or weed control at 125 g/ha ([1]; pre-emergence, Preemergence)	pest or weed control at 500 g/ha ([1]; pre-emergence, Preemergence)	Corn plant response rating (crop injury, 0 = no effect, 100 = complete kill) at 125 g/ha (corn (Zea mays); post-emergence, Postemergence)	Corn plant response rating (crop injury, 0 = no effect, 100 = complete kill) at 500 g/ha (corn (Zea mays); post-emergence, Postemergence)	Corn plant response rating (crop injury, 0 = no effect, 100 = complete kill) at 125 g/ha (corn (Zea mays); pre-emergence, Preemergence)	Corn plant response rating (crop injury, 0 = no effect, 100 = complete kill) at 500 g/ha (corn (Zea mays); pre-emergence, Preemergence)	pest or weed control at 125 g/ha ([2]; post-emergence, Postemergence)	pest or weed control at 500 g/ha ([2]; post-emergence, Postemergence)	pest or weed control at 125 g/ha ([2]; pre-emergence, Preemergence)	pest or weed control at 500 g/ha ([2]; pre-emergence, Preemergence)	pest or weed control at 125 g/ha ([3]; post-emergence, Postemergence)	pest or weed control at 500 g/ha ([3]; post-emergence, Postemergence)	pest or weed control at 125 g/ha ([3]; pre-emergence, Preemergence)	pest or weed control at 500 g/ha ([3]; pre-emergence, Preemergence)	pest or weed control at 125 g/ha ([4]; post-emergence, Postemergence)	pest or weed control at 500 g/ha ([4]; post-emergence, Postemergence)	pest or weed control at 125 g/ha ([4]; pre-emergence, Preemergence)	pest or weed control at 500 g/ha ([4]; pre-emergence, Preemergence)	further results
Cc1cc(=O)n(-c2ccc(F)cc2)nc1Cn1ccc(C(F)(F)F)n1 [Compound 3, 2-(4-fluorophenyl)-5-methyl-6-[[3-(trifluoromethyl)-1H-pyrazol-1-yl]methyl]-3(2H)-pyridazinone]	0%	10%	0%	20%	0%	20%	0%	0%	10%	30%	30%	90%	10%	30%	0%	40%	60%	70%	0%	0%	pest or weed control at 125 g/ha ([5]; post-emergence, Postemergence): 60%; pest or weed control at 500 g/ha ([5]; post-emergence, Postemergence): 70%; pest or weed control at 125 g/ha ([5]; pre-emergence, Preemergence): 20%; pest or weed control at 500 g/ha ([5]; pre-emergence, Preemergence): 80%; pest or weed control at 125 g/ha ([6]; post-emergence, Postemergence): 30%; pest or weed control at 500 g/ha ([6]; post-emergence, Postemergence): 80%; pest or weed control at 125 g/ha ([6]; pre-emergence, Preemergence): 0%; pest or weed control at 500 g/ha ([6]; pre-emergence, Preemergence): 20%; plant injury at 125 g/ha ([7]; post-emergence, Postemergence): 0%; plant injury at 500 g/ha ([7]; post-emergence, Postemergence): 0%; plant injury at 125 g/ha ([7]; pre-emergence, Preemergence): 0%; plant injury at 500 g/ha ([7]; pre-emergence, Preemergence): 0%
Cc1cc(=O)n(-c2ccc(C(F)(F)F)cc2)nc1Oc1ccnc(C(F)(F)F)c1 [Compound 5, 5-methyl-2-[4-(trifluoromethyl)phenyl]-6-[[2-(trifluoromethyl)-4-pyridinyl]oxy]-3(2H)-pyridazinone]	20%	70%	40%	90%	20%	30%	0%	10%	50%	80%	100%	100%	60%	90%	90%	100%	60%	100%	60%	80%	pest or weed control at 125 g/ha ([5]; post-emergence, Postemergence): 100%; pest or weed control at 500 g/ha ([5]; post-emergence, Postemergence): 100%; pest or weed control at 125 g/ha ([5]; pre-emergence, Preemergence): 100%; pest or weed control at 500 g/ha ([5]; pre-emergence, Preemergence): 100%; pest or weed control at 125 g/ha ([6]; post-emergence, Postemergence): 70%; pest or weed control at 500 g/ha ([6]; post-emergence, Postemergence): 100%; pest or weed control at 125 g/ha ([6]; pre-emergence, Preemergence): 20%; pest or weed control at 500 g/ha ([6]; pre-emergence, Preemergence): 100%; plant injury at 125 g/ha ([7]; post-emergence, Postemergence): 30%; plant injury at 500 g/ha ([7]; post-emergence, Postemergence): 40%; plant injury at 125 g/ha ([7]; pre-emergence, Preemergence): 0%; plant injury at 500 g/ha ([7]; pre-emergence, Preemergence): 10%
